Legend:
[1] = test system: 4T1 tumor; test: 4T1 tumor growth in mice; format: in vivo; conditions: for 4T1 tumor growth: echinomycin 0.15 mg/kg, vs vehicle
Experimental: FIGS. 3A-D show the therapeutic effects of echinomycin on tumor growth in immunodeficient and immunocompetent mice. FIG. 3A. Experimental design. Three murine tumor lines were tested: 4T1, E0771, or MC38. For each, immunodeficient and immunocompetent mice were inoculated (day 0), and treatment was initiated with control liposomes (vehicle) or echinomycin liposomes (LEM) on day 6, indicated by arrows in FIGS. 3B-3D. The kinetics of tumor growth were compared to deduce the role of adaptive immunity in the therapeutic effects of echinomycin. FIG. 3B. 4T1 cells (1×10^6) were transplanted into mammary fat pad of NSG and BALB/c mice, which received vehicle or echinomycin (0.15 mg/kg) (arrows). Mean tumor volumes±SEM are shown for one of two independent experiments (n=10/group). FIG. 3C. Kinetics of E0771 tumor growth. E0771 cells (0.7×10^6) were transplanted into mammary fat pad of NSG and C57BL/6 mice, which received vehicle or echinomycin (0.25 mg/kg) (arrows). Mean tumor volumes±SEM are shown for one of two independent experiments (n=5/group). FIG. 3D. Kinetics of MC38 tumor growth. MC38 cells (1×10^6) were transplanted subcutaneously into NSG and C57BL/6 mice, which received vehicle or echinomycin (0.15 mg/kg) (blue arrows). Mean tumor volumes±SEM are shown for one of two independent experiments (n=5/group).
FIGS. 5A-D show at echinomycin potentiates the therapeutic effect of anti-CTLA-4 antibody. FIG. 5A. Experimental design. In 4T1, E0771, or MC38 syngeneic tumor models, the effects of echinomycin on tumor growth were tested in combination with anti-CTLA-4 therapy (9D9). Tumor growth kinetics in mice receiving vehicle, echinomycin, and anti-CTLA-4 (9D9) monotherapies, or anti-CTLA-4+anti-PD-1 (9D9+RMP1-14) are shown. Starting on day 6 after tumor cell inoculation, mice received vehicle or echinomycin and/or various mAbs. The mean tumor volumes±SEM are shown for each group. […]
Tumor Models The details of each experiment are specified in the figure legends. […] Tumor volumes were calculated and reported based on the formula […], where a is the longer diameter, and b is the shorter diameter. […]

[2] = test system: irAE target organs (liver, kidney), spleen; test: PD-L1 expression and T cell infiltration in normal tissues (liver, kidney, spleen) of E0771 tumor-bearing mice; format: in vivo, C57BL/6 mice
Experimental: E0771 cells (0.5×10^6) were orthotopically transplanted into C57BL/6 mice (day 0), which were divided into 6 treatment groups: vehicle, echinomycin (LEM), anti-CTLA-4 (9D9), 9D9+echinomycin, 9D9+echinomycin+XMG1.2 (an anti-IFNγ antibody), or 9D9+RMP1-14. Echinomycin (0.25 mg/kg) or mAbs (0.2 mg/mouse/injection) were given on days 6, 8, 10, and 12. On day 14, the mice were euthanized, perfused, and the spleens were dissociated and analyzed by flow cytometry, or stimulated for 4 hours with PMA+ionomycin+GolgiStop prior to intracellular staining for IFNγ. The liver and kidney were processed for immunofluorescence analysis for PD-L1. FIG. 7A. PD-L1 expression in the tumor-bearing mice treated with different therapies. Representative immunofluorescence images shown for kidney (upper) and liver tissues (lower) of mice from indicated treatment groups stained by anti-PD-L1 and DAPI. FIGS. 7B-D. T cell infiltration in the liver and kidney of tumor-bearing mice. Representative immunofluorescence images from mice in the indicated treatment groups after staining with anti-CD3 and DAPI are shown in FIG. 7B for kidney (upper panel) and liver tissues (lower panel). T cell infiltration scores in the kidney (FIG. 7C) and liver (FIG. 7D) are shown as mean±SEM infiltration scores for the kidney (FIG. 7C) and liver tissues (FIG. 7D). T cell infiltration scoring range: 0, normal/none; 1, minimal; 2, mild; 3, moderate; 4, severe. FIG. 7E. Frequency of splenic Tc1 cells among CD8^+ T cells (gated on Singlets/Live_CD45^+/CD3^+/CD8^+CD4^−), expressed as the mean±SEM. FIG. 7F. Frequencies of splenic Th1 cells among CD4^+ T cells (gated on Singlets/Live_CD45^+/CD3^+/CD8^−CD4^+), expressed as the mean±SEM. FIG. 7G. Frequency of splenic T cells (gated on Singlets/Live_CD45^+/CD3^+/CD8^+CD4^−) among total hematopoietic cells (gated on Singlets/Live_CD45^+). Representative data are shown for one of at least two independent experiments. FIG. 7H. CD3 and cleaved-caspase 3 staining in kidney and liver. Representative immunofluorescence images shown for kidney (upper) and liver tissues (lower) of mice that received 9D9 or 9D9+LEM. Caspase 3 positive cells are indicated with arrows. All data is representative of at least two independent experiments. In FIGS. 7C-G, data are presented as the mean±SEM with each dot representing an individual mouse, analyzed by one-way ANOVA with Sidak's posttest.

`CSC1SC[C@H]2C(=O)N(C)[C@@H](C(C)C)C(=O)OC[C@@H](NC(=O)c3cnc4ccccc4n3)C(=O)N[C@@H](C)C(=O)N(C)[C@@H]1C(=O)N(C)[C@@H](C(C)C)C(=O)OC[C@@H](NC(=O)c1cnc3ccccc3n1)C(=O)N[C@@H](C)C(=O)N2C` (stereo in doubt) [echinomycin, N,N′-(2,4,12,15,17,25-hexamethyl-11,24-bis(1-methylethyl)-27-(methylthio)-3,6,10,13,16,19,23,26-octaoxo-9,22-dioxa-28-thia-2,5,12,15,18,25-hexaazabicyclo(12.12.3)nonacosane-7,20-diyl)bis(2-quinoxalinecarboxamide)] was tested, and the “4T1 growth inhibition, immunocompetent vs immunodeficient mice” value ([1]; BALB/c vs NSG) was “more significantly inhibited in immunocompetent mice than in immunodeficient mice”, the 4T1 tumor growth ([1]; immunocompetent BALB/c) was “significantly inhibited 4T1 tumor growth” and the 4T1 tumor growth ([1]; immunodeficient NSG) was “significantly inhibited 4T1 tumor growth”. The “T cell infiltration in liver and kidney” value ([2]; E0771 tumor-bearing C57BL/6, anti-CD3 immunofluorescence) was “did not stimulate increased infiltration”, the “PD-L1 expression in liver and kidney (immunofluorescence)” value ([2]; E0771 tumor-bearing C57BL/6, echinomycin 0.25 mg/kg, mAbs 0.2 mg/mouse/injection) was “also induced PD-L1” and the “PD-L1 expression in normal tissues including liver, kidney, salivary gland and colon” value ([2]; immunocompetent mice) was “induced PD-L1 expression”. For the same compound, the “PD-L1 induction in the liver in mice with conditional knockout of Hif1α in T cells” value ([2]; mouse, in vivo) was “preserved regardless of the mouse genotype”.
